Source: patent EP2042492A1, “Novel Iminooxazole and Iminothiazole Compounds” (Bayer CropScience AG, priority 2007, dated 2009)

Columns and labels:
Myzus persicae = Myzus persicae - test (MYZUPE spray application); assay type: in vivo; conditions: application rate of 500g/ha, spray on Chinese cabbage leaf-disks infected with all instars of green peach aphid, 100% = all aphids killed
Procedure: Myzus persicae - test; (MYZUPE spray application)
Chinese cabbage (Brassica pekinesis) leaf-disks infected with all instars of the green peach aphid (Myzus persicae), are sprayed with a preparation of the active ingredient at the desired concentration.
After the specified period of time, mortality in % is determined. 100% means that all aphids have been killed; 0% means that none of the aphids have been killed.

[1] = LogP via HPLC according to EEC directive 79/831 Annex V.A8 (gradient method, acetonitrile / 0,1 % aqueous formic acid); assay type: physicochemical; conditions: read-out: lgP (HCOOH)
Procedure: Step 2: A stirred mixture of 58 mg (0,24 mmol) of 1-[(1S)-1-(4-fluorophenyl)ethyl]-3-(2-hydroxyethyl)thiourea (preparation step 1) and 27 mg (0,29 mmol) of 1-chloro-propan-2-one in ethanol was refluxed for 18 hours. The solvent was evaporated under reduced pressure and the residue was heated to 70 °C with 25 % aqueous NH4OH solution. This aqueous solution was cooled to ambient temperature and extracted twice with dichloromethane. The organic layer was separated, dried with sodium sulfate and filtered off. The solvent was evaporated under reduced pressure. The residue was purified by chromatography (silica gel; cyclohexane/ethyl acetate = vol. 2:1) to afford 42 mg of 2-[(2E)-2-{[(1S)-1-(4-fluorophenyl)ethyl]imino}-4-methyl-1,3-thiazol-3(2H)-yl]ethanol. Yield: 42 mg (62,3 % of theory). logP (HCOOH) = 0,89 LogP values according EEC directive 79/831 Annex V.A8 via HPLC (gradient method, acetonitrile / 0,1 % aqueous formic acid).

Phaedon cochleariae = Phaedon cochleariae - test (PHAECO spray application); assay type: in vivo; conditions: application rate of 500g/ha, sprayed Chinese cabbage leaf-disks infested with mustard beetle larvae, 100 % = all beetle larvae killed
Procedure: Phaedon cochleariae - test; (PHAECO spray application)
(§1) To produce a suitable preparation of active compound, 1 part by weight of active compound is mixed with the stated amount of solvent and emulsifier, and the concentrate is diluted with emulsifier-containing water to the desired concentration.
Chinese cabbage (Brassica pekinesis) leaf-disks are sprayed with a preparation of the active ingredient of the desired concentration. Once dry, the leaf disks are infested with mustard beetle larvae (Phaedon cochleariae).
After the specified period of time, mortality in % is determined. 100 % means that all beetle larvae have been killed and 0 % means that none of the beetle larvae have been killed.

Tetranychus urticae = Tetranychus urticae - test; OP-resistant (TETRUR spray application); assay type: in vivo; conditions: application rate of 500g/ha, spray on French beans infested with all stages of two spotted spidermite, 100% = all spider mites killed
Procedure: Tetranychus urticae - test; OP-resistant (TETRUR spray application)
as §1
French beans (Phaseolus vulgaris) which are heavily infested with all stages of the two spotted spidermite (Tetranychus urticae), are sprayed with a preparation of the active ingredient at the desired concentration.
After the specified period of time, mortality in % is determined. 100% means that all spider mites have been killed and 0% means that none of the spider mites have been killed.

Structure (SMILES)	mortality at 500 g/ha (Myzus persicae)	chromatographic logP [1]	mortality at 500 g/ha (Phaedon cochleariae)	mortality at 500 g/ha (Tetranychus urticae)
Cc1csc(=N[C@@H](C)c2ccccc2)n1CCO [Example 2-17]	≥ 80%	0.85		
CCc1csc(=N[C@@H](C)c2ccccc2)n1CCO [Example 2-18]	≥ 80%	0.96		
CC(C)c1csc(=N[C@@H](C)c2ccccc2)n1CCO [Example 2-19]	≥ 80%	1.07		
Cc1sc(=N[C@@H](C)c2ccccc2)n(CCO)c1C [Example 2-21]	≥ 80%	1.13		
C[C@H](N=c1scc(C2CC2)n1CCO)c1ccccc1 [Example 2-22]	≥ 80%	1.01		
C[C@H](N=c1scc(C2CCCC2)n1CCO)c1ccccc1 [Example 2-23]	≥ 80%	1.26		
C[C@H](N=c1scc(-c2ccccc2)n1CCO)c1ccccc1 [Example 2-25]	≥ 80%	1.19		
C[C@H](N=c1scc(-c2cccnc2)n1CCO)c1ccccc1 [Example 2-27]	≥ 80%	0.85		
C[C@H](N=c1scc(C2(Cl)CC2)n1CCO)c1ccccc1 [Example 2-29]	≥ 80%	1.12		
Cc1cs/c(=N/[C@@H](C)c2ccc(F)cc2)n1CCO [Example 2-152, 2-[(2E)-2-{[(1S)-1-(4-fluorophenyl)ethyl]imino}-4-methyl-1,3-thiazol-3(2H)-yl]ethanol]	≥ 80%	0.89		
CCc1csc(=N[C@@H](C)c2ccc(F)cc2)n1CCO [Example 2-153]	≥ 80%	1	≥ 80%	
CC(C)c1csc(=N[C@@H](C)c2ccc(F)cc2)n1CCO [Example 2-154]	≥ 80%	1.12		
C[C@H](N=c1scc(C2CC2)n1CCO)c1ccc(F)cc1 [Example 2-157]	≥ 80%	1.03		
C[C@H](N=c1scc(C2CCCC2)n1CCO)c1ccc(F)cc1 [Example 2-158]	≥ 80%	1.31		
C[C@H](N=c1scc(-c2ccccc2)n1CCO)c1ccc(F)cc1 [Example 2-160]	≥ 80%	1.26		
C[C@H](N=c1scc(-c2cccnc2)n1CCO)c1ccc(F)cc1 [Example 2-162]	≥ 80%	0.9		
C[C@H](N=c1scc(C2(Cl)CC2)n1CCO)c1ccc(F)cc1 [Example 2-164]	≥ 80%	1.14		
COc1ccc([C@H](C)N=c2scc(C)n2CCO)cc1 [Example 2-272]		0.89		
CCc1csc(=N[C@@H](C)c2ccc(OC)cc2)n1CCO [Example 2-273]		1		
COc1ccc([C@H](C)N=c2scc(C(C)C)n2CCO)cc1 [Example 2-274]		1.09		

Structure (SMILES)	mortality at 500 g/ha (Myzus persicae)	chromatographic logP [1]	mortality at 500 g/ha (Phaedon cochleariae)	mortality at 500 g/ha (Tetranychus urticae)
COc1ccc([C@H](C)N=c2scc(C3CC3)n2CCO)cc1 [Example 2-277]		1.05		
COc1ccc([C@H](C)N=c2scc(C3CCCC3)n2CCO)cc1 [Example 2-278]		1.33		
COc1ccc([C@H](C)N=c2scc(-c3ccccc3)n2CCO)cc1 [Example 2-280]		1.26		
COc1ccc([C@H](C)N=c2scc(-c3cccnc3)n2CCO)cc1 [Example 2-282]		0.9		
COc1ccc([C@H](C)N=c2scc(C3(Cl)CC3)n2CCO)cc1 [Example 2-284]		1.14		
Cc1csc(=N[C@@H](C)c2ccc(Cl)cc2)n1CCO [Example 2-287]	≥ 80%	1.03		≥ 80%
CCc1csc(=N[C@@H](C)c2ccc(Cl)cc2)n1CCO [Example 2-288]	≥ 80%	1.14		≥ 80%
CC(C)c1csc(=N[C@@H](C)c2ccc(Cl)cc2)n1CCO [Example 2-289]	≥ 80%	1.28		
C[C@H](N=c1scc(C2CCCC2)n1CCO)c1ccc(Cl)cc1 [Example 2-293]	≥ 80%	1.42		
C[C@H](N=c1scc(-c2ccccc2)n1CCO)c1ccc(Cl)cc1 [Example 2-295]	≥ 80%	1.38		
C[C@H](N=c1scc(-c2cccnc2)n1CCO)c1ccc(Cl)cc1 [Example 2-297]	≥ 80%	1.03		
C[C@H](N=c1scc(C2(Cl)CC2)n1CCO)c1ccc(Cl)cc1 [Example 2-299]	≥ 80%	1.33		
CC[C@H](N=c1scc(C)n1CCO)c1ccccc1 [Example 2-362]	≥ 80%	0.98		
CCc1csc(=N[C@@H](CC)c2ccccc2)n1CCO [Example 2-363]	≥ 80%	1.09		
CC[C@H](N=c1scc(C(C)C)n1CCO)c1ccccc1 [Example 2-364]	≥ 80%	1.19		
CC[C@H](N=c1scc(C2CC2)n1CCO)c1ccccc1 [Example 2-367]	≥ 80%	1.14		
CC[C@H](N=c1scc(C2CCCC2)n1CCO)c1ccccc1 [Example 2-368]	≥ 80%	1.4		
CC[C@H](N=c1scc(-c2ccccc2)n1CCO)c1ccccc1 [Example 2-370]	≥ 80%	1.33		
CC[C@H](N=c1scc(-c2cccnc2)n1CCO)c1ccccc1 [Example 2-372]	≥ 80%	1		
CC[C@H](N=c1scc(C2(Cl)CC2)n1CCO)c1ccccc1 [Example 2-374]	≥ 80%	1.19		
